Entries after “also recorded” stand apart in the source; their conditions may differ.
Key:
[1] = biological target: T1, Hsp90β (Homo sapiens, UniProt P08238); assay: Fluorescence polarization assay (FITC-GDA tracer displacement), Hsp90β; format: binding; conditions: Table 1; concentration at which tracer 50% displaced, reported as Kd
T1 construct: 50 μL of assay buffer containing 10 nM of Hsp90, Hsp90a, Grp94, or Trap1 were added to each well

[2] = tested on: TRAP1-dependent client proteins NDUFS1, glutaminase-1, and Sirt3; assay: Western blot for degradation of TRAP1 client proteins; format: cell-based; conditions: for degradation of TRAP1-dependent client proteins NDUFS1, glutaminase-1, Sirt3: HeLa and 22Rv1 cells, 6 h treatment
[3] = tested on: cytosolic Hsp90 clients, Akt and Cdk4, Hsp70; assay: Western blot for cytosolic Hsp90 clients and Hsp70 induction; format: cell-based; conditions: HeLa and 22Rv1 cells, 6 h treatment
[4] = tested on: HeLa cells; assay: Seahorse XFe oxygen consumption rate, HeLa; format: cell-based; conditions: 6 h treatment, significant at 25 μM and 50 μM
[5] = tested on: 22RV1 cells; assay: Seahorse XFe oxygen consumption rate, 22Rv1; format: cell-based; conditions: 6 h treatment, significant at 25 μM and 50 μM
[6] = tested on: HeLa cells; assay: TMRM staining for mitochondrial membrane potential; format: cell-based; conditions: 6 h treatment, 25 μM and 50 μM
[7] = tested on: HeLa cells; assay: Seahorse mitochondrial function (oligomycin, FCCP, rot/AA injections), HeLa; format: cell-based; conditions: 6 hr pretreatment
[8] = tested on: 22RV1 cells; assay: Seahorse mitochondrial function (oligomycin, FCCP, rot/AA injections), 22Rv1; format: cell-based; conditions: 6 hr pretreatment
[9] = tested on: HeLa cells; assay: Cellular ATP production rate (glycolysis vs mitochondrial); format: cell-based; conditions: oligomycin and rot/AA injections
[10] = tested on: HeLa cells; assay: Mitochondrial fuel oxidation with BPTES, UK5099 and etomoxir; format: cell-based
[11] = tested on: TRAP1-dependent client proteins NDUFS1, glutaminase-1, and Sirt3; conditions: literature report; cited from earlier work

T1 sequence (P08238 whole entry): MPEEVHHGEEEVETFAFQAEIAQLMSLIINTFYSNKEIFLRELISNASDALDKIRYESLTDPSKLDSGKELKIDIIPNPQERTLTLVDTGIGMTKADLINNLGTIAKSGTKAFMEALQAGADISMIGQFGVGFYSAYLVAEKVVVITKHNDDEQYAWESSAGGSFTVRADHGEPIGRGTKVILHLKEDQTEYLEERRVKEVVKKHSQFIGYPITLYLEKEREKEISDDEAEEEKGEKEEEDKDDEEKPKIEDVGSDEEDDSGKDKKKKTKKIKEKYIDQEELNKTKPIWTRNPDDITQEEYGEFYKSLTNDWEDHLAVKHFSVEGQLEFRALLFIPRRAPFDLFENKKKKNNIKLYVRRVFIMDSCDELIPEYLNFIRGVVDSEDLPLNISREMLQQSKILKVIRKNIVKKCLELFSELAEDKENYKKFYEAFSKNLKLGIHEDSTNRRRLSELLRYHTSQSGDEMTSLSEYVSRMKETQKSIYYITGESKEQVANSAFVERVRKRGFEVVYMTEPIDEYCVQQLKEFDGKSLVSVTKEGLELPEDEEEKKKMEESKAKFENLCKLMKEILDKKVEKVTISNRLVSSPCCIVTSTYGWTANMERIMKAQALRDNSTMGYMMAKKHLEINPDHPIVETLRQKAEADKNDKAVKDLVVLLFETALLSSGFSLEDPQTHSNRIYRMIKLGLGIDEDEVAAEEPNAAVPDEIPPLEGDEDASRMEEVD

| Molecule | Kd [1] | degradation of TRAP1-dependent client proteins NDUFS1, glutaminase-1, Sirt3 [2] | degradation of cytosolic Hsp90 clients Akt and Cdk4, induction of Hsp70 [3] | oxygen consumption rate / OXPHOS [4] | oxygen consumption rate / OXPHOS [5] | TMRM fluorescence / mitochondrial membrane potential [6] | proton leak, maximal respiration, non-mitochondrial O2 consumption, spare respiratory capacity [7] | proton leak, maximal respiration, non-mitochondrial O2 consumption, spare respiratory capacity [8] | cellular ATP production via oxidative phosphorylation or glycolysis [9] | expression of TRAP1 clients NDUFS1, glutaminase-1, Sirt3 ([2]; HeLa cells, 2 hr treatment, up to 50 μM) | mitochondrial glutamine, fatty acid, and glucose oxidation ([10]; 6 hr treatment, 32 at 50 μM) | response of basal OCR to BPTES, UK5099, etomoxir ([10]; HeLa cells, 2 hr incubation, 50 μM) | degradation of TRAP1 client proteins (reported by Yoon, N. G. et al.) [11] |
| --- | --- | --- | --- | --- | --- | --- | --- | --- | --- | --- | --- | --- | --- |
| O=C(c1cc(C(=O)N2Cc3ccccc3C2)c(O)cc1O)N1Cc2ccccc2C1 [Compound 4] | 1000 ± 50 nM | – | – | – | – | – | – | – | – | – | – | – | – |
| COc1cccc2c1CN(C(=O)c1ccc(O)c(C(=O)N3Cc4ccc(OCCC[P+](c5ccccc5)(c5ccccc5)c5ccccc5)cc4C3)c1)C2 [Compound 36, (3-((2-(2-Hydroxy-5-(4-methoxyisoindoline-2-carbonyl)benzoyl)isoindolin-5-yl)oxy)propyl)triphenylphosphonium hexafluorophosphate(V)] | – | dose-dependent and selective degradation | without inducing the degradation | statistically significant reduction of oxygen consumption; also recorded: significant dose-dependent decrease in OXPHOS; also recorded: inhibit OXPHOS | significant dose-dependent decrease in OXPHOS; also recorded: statistically significant reduction of oxygen consumption; also recorded: inhibit OXPHOS | marked decrease in TMRM fluorescence; also recorded: disrupt the mitochondrial membrane potential | decreased | decreased | alter cellular metabolism towards glycolysis | – | – | – | – |
| O=C(c1ccc(O)c(C(=O)N2Cc3ccc(OCCC[P+](c4ccccc4)(c4ccccc4)c4ccccc4)cc3C2)c1)N1Cc2cccc(F)c2C1 [Compound 35, (3-((2-(5-(4-Fluoroisoindoline-2-carbonyl)-2-hydroxybenzoyl)isoindolin-5-yl)oxy)propyl)triphenylphosphonium hexafluorophosphate(V)] | – | dose-dependent and selective degradation | without inducing the degradation | statistically significant reduction of oxygen consumption; also recorded: significant dose-dependent decrease in OXPHOS; also recorded: inhibit OXPHOS | significant dose-dependent decrease in OXPHOS; also recorded: statistically significant reduction of oxygen consumption; also recorded: inhibit OXPHOS | marked decrease in TMRM fluorescence; also recorded: disrupt the mitochondrial membrane potential | decreased | decreased | alter cellular metabolism towards glycolysis | dose-dependently decreased | reduced OCR (oxygen consumption rate) and prevented measurement | unresponsive to BPTES, UK5099, and etomoxir | – |
| COC1=C(OC)C(=O)C(CCCCCCCCCC[P+](c2ccccc2)(c2ccccc2)c2ccccc2)=C(C)C1=O [MitoQ, reference compound] | – | – | – | – | – | marked decrease in TMRM fluorescence | decreased | decreased | – | – | – | – | induce the degradation of these clients |
| gamitrinib [reference compound] | – | – | pan-Hsp90 inhibition | – | – | marked decrease in TMRM fluorescence | decreased | decreased | – | – | – | – | – |

From patent US20260055060A1, “USE OF (ISOINDOLIN-2-YL)(4-HYDROXY-3-(ISOINDOLINE-2-CARBONYL)PHENYL)METHANONES IN THE TREATMENT OF TUMOR NECROSIS FACTOR RECEPTOR-ASSOCIATED PROTEIN 1 DYSFUNCTION” (UNIVERSITY OF NOTRE DAME DU LAC, priority 2022, published 2026)
